Here are results for two substances from ChEMBL document CHEMBL5537162, “Development of Antibacterial Peptides with Membrane Disruption and Folate Pathway Inhibitory Activities against Methicillin-Resistant Staphylococcus aureus” (J Med Chem, 2024).

Data set [1] concerns Staphylococcus aureus. Briefly: Antibacterial activity against methicillin-resistant Staphylococcus aureus 18475 assessed as bacterial growth inhibition incubated for 24 hrs by CLSI based micro-broth dilution assay. The data set is classed as functional.
In data set [2] the test system is Staphylococcus aureus. Briefly: Antibacterial activity against Staphylococcus aureus 6538 assessed as bacterial growth inhibition incubated for 24 hrs by CLSI based micro-broth dilution assay. The class given is functional.
A further data set deals with Cell membrane. Description: Disruption of membrane integrity in methicillin-resistant Staphylococcus aureus measured for 6 hrs by scanning electron microscopic analysis. The class given is cell membranes.
Data set [3] relates to Staphylococcus aureus. Briefly: Antibacterial activity against Methicillin-resistant Staphylococcus aureus infected in ICR mouse skin infection model assessed as reduction in skin abscess volume at 40 mg/kg, sc measured upto 10 days. The class given is functional, organism-based. As to conditions: time <= 10.0 day.
Data set [4] concerns Staphylococcus aureus. Description: Antibacterial activity against methicillin-resistant Staphylococcus aureus 19047 assessed as bacterial growth inhibition incubated for 24 hrs by CLSI based micro-broth dilution assay. The data set is classed as functional.
Data set [5] deals with Staphylococcus aureus. Briefly: Antibacterial activity against methicillin-resistant Staphylococcus aureus assessed as bacterial growth inhibition incubated for 24 hrs by CLSI based micro-broth dilution assay. The class given is functional.
For data set [6], the system named is Staphylococcus aureus. Description: Antibacterial activity against methicillin-resistant Staphylococcus aureus assessed as fold reduction in viable bacteria at 8 times MIC measured at 3 to 6 hrs by time-kill assay. The data set is classed as functional, organism-based. As to conditions: time 3-6 hrs.
Data set [7] in a line: Selectivity index, ratio of IC50 for antiproliferative activity against HEK293T cells assessed as reduction in cell viability to MIC for antibacterial activity against methicillin-resistant Staphylococcus aureus assessed as bacterial growth inhibition. The class given is toxicity, cell-based. As to conditions: human, read-out: Selectivity Index.
For data set [8], the system named is Staphylococcus aureus. Briefly: Antibacterial activity against Methicillin-resistant Staphylococcus aureus infected in ICR mouse skin infection model assessed as reduction in inflammatory infiltration at 40 mg/kg, sc by H and E staining based microscopic analysis. The data set is classed as functional, organism-based.
In data set [9] the test system is Staphylococcus aureus. Briefly: Antibacterial activity against methicillin-resistant Staphylococcus aureus 19498 assessed as bacterial growth inhibition incubated for 24 hrs by CLSI based micro-broth dilution assay. The class given is functional.
A short description of data set [10]: Stability in methicillin-resistant Staphylococcus aureus supernatants measured for 12 hrs by RP-HPLC analysis. The class given is physicochemical. As to conditions: read-out: Stability.
Data set [11] deals with Staphylococcus aureus. Briefly: Antibacterial activity against methicillin-resistant Staphylococcus aureus assessed as reduction in viable bacteria at 1 to 8 times MIC measured at 1 hr by time-kill assay. The data set is classed as functional, organism-based.

Activity calls are given as the source filed them. No cut-off for these calls is given here.

On to H-LARVARRVIRFIRRAW-NH2, for which the MIC with Staphylococcus aureus [1] came out at 6 µM; with Staphylococcus aureus [2], 3 µM; in the data set with Staphylococcus aureus [4] it was 3 µM; in the data set on Staphylococcus aureus [5], 3 µM; with Staphylococcus aureus [9] it was 6 µM. Besides, the result in the data set with Cell membrane, with Staphylococcus aureus [3], in the data set on Staphylococcus aureus [6], with Staphylococcus aureus [8] and with Staphylococcus aureus [11] was Active. The selectivity ratio in [7] worked out at 107. Besides, the remaining at 12 h in data set [10] amounted to 50%.

Consider H-RRRLARRLIFFIRRAW-NH2, for which the MIC in the data set on Staphylococcus aureus [1] came to 6 µM; in the data set on Staphylococcus aureus [2], 3 µM; in the data set on Staphylococcus aureus [4], 6 µM; in the data set on Staphylococcus aureus [5], 3 µM; in the data set with Staphylococcus aureus [9] it was 3 µM. Moreover, the result in the data set with Cell membrane, in the data set with Staphylococcus aureus [3], in the data set on Staphylococcus aureus [6], with Staphylococcus aureus [8] and in the data set with Staphylococcus aureus [11] was Active. Besides, in [7], the selectivity ratio is 107. For the same substance, in [10], the remaining at 12 h was determined as 25%.
